Test results reported in patent publication US20260226048A1, “MULTI-CYCLIC IRAK AND FLT3 INHIBITING COMPOUNDS AND USES THEREOF” (CHILDREN'S HOSPITAL MEDICAL CENTER, priority 2023, published 2026).
Read-outs that look alike come from different tables or passages of the source.

Assays:
IRAK1 = target: T1, IRAK1 (Homo sapiens, UniProt P51617); assay: RBC HotSpot Kinase Assay, IRAK1; assay type: biochemical; conditions: isolated kinase enzyme, 33P-ATP, P81 filter-binding
T1 construct: purchased Reaction Biology (RBC HotSpot)
T1 sequence (P51617 whole entry): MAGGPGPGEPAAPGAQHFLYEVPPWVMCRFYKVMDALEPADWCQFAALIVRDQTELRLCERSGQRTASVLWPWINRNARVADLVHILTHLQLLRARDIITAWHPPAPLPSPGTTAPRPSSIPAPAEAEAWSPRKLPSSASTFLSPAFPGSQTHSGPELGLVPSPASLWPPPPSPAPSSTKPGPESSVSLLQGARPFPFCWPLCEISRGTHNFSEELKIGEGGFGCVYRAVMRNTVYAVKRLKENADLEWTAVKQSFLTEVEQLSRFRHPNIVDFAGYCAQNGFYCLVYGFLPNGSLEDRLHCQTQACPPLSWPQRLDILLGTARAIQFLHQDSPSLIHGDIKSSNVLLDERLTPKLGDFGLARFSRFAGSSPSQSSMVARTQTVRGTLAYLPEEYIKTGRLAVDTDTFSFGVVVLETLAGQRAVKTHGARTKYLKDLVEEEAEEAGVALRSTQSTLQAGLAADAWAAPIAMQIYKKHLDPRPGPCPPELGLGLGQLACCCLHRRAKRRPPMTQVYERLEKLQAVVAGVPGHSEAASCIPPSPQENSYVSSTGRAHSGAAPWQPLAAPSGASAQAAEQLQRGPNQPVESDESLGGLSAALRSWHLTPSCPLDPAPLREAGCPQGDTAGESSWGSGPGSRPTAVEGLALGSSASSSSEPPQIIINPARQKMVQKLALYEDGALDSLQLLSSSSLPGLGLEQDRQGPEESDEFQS
Method in brief: (§1)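 Reactions ran in 20 mM Hepes (pH 7.5) containing 10 mM MgCl2, 1 mM EGTA, 0.1 mM Na3VO4, 2 mM DTT, 0.02 mg/ml BSA, 0.01% Brij35 and 1% DMSO, plus required cofactors. Functional activity readout on the expressible enzyme form, sometimes C-terminally truncated or lacking receptor regulatory regions.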

[1] = tested on: NF-κB-inducible SEAP reporter in THP-1-Blue NF-κB cells; assay: NF-kB SEAP reporter assay in THP-1-Blue NF-κB cells; assay type: cell-based; conditions: 24 hours
Method: THP-1-Blue NF-κB cells (InvivoGen) carrying a stable integrated NF-κB-inducible secreted embryonic alkaline phosphatase (SEAP) reporter construct were plated at a concentration of 1×10^5 cells per well. The cells were stimulated with Pam3CSK4 (1 ng/mL) or hIL1B (1 ng/mL). After 10-20 minutes, the cells were then treated with vehicle (DMSO) or serial dilutions of the test compounds (10 doses tested for each test compound, with a 1:10 dilution series starting at 1 μM or 3 μM) with a final volume of 200 μL for 24 hours at 37° C. After 24 hours, the cells were centrifuged and 20 μL supernatant was incubated with 180 μL QUANTI-Blue reagent at 37° C. for 30-60 minutes. The levels of NF-κB-induced was measured in a microplate reader at 620 nm.

IRAK4 = target: T2, IRAK4 (Homo sapiens, UniProt Q9NWZ3); assay: RBC HotSpot Kinase Assay, IRAK4; assay type: biochemical; set-up: purchased Reaction Biology (RBC HotSpot); conditions: isolated kinase enzyme, 33P-ATP, P81 filter-binding
T2 sequence (Q9NWZ3 1-460): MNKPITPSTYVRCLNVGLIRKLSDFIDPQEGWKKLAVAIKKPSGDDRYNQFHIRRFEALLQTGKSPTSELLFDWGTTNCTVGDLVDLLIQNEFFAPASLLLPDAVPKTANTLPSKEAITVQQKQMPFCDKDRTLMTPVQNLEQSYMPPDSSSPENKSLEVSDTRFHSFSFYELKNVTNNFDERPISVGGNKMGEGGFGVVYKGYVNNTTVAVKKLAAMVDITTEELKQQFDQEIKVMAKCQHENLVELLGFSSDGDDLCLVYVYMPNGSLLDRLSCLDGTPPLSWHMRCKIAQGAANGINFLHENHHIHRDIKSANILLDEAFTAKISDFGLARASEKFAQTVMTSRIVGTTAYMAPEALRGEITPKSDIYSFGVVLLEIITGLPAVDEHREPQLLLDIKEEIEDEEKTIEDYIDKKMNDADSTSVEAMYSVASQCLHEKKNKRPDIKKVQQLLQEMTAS
Method in brief: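 Radiometric filter-binding activity assay with isolated recombinant kinase (construct may be truncated or catalytic domain only) in 20 mM Hepes pH 7.5, 10 mM MgCl2, 1 mM EGTA, 2 mM DTT, 1% DMSO. Compound preincubated 20 min with kinase/substrate; reaction started with 33P-ATP, run 2 h at room temperature.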

MOLM14 F691L cells = assay: MOLM14 F691L cell viability assay (Cell Titer Glo); assay type: cell-based; conditions: Homo sapiens, MOLM-14; cell viability, Cell Titer Glo, 48 hours; read-out: MOLM14 F691L IC50
Method in brief: (§2)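 Luminescent ATP read-out (CellTiter-Glo, 15 min room temperature) taken 48 h after compound addition. Cells were MOLM14 carrying FLT3 D835Y or F691L mutations, plated at 1000 cells per well.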

THP1 cells (FLT3 WT) = assay: Combination drug screening with venetoclax in THP1 cells (Cell Titre Glo, 10 × 10); assay type: cell-based; conditions: for Excess HSA (sum excess HSA score, combination with venetoclax): 10 × 10 dataset, Cell Titre Glo at 48 hours, optimal of 4 dose combinations, negative = synergy; for Concentration needed to decrease the 312.5 nM Venetoclax response to <20%: Cell Titer Glo at 48 hours
Method: (§3) These assays were performed using the Cell Titre Glo assay, measured at 48 hours.
(§4) A smaller concentration indicates higher potency to synergize with Venetoclax.

[2] = tested on: MOLM14-D835Y cells (FLT3-ITD (D835Y) mutant); assay: Combination drug screening with venetoclax in MOLM14 (D835Y) cells (Cell Titre Glo, 10 × 10); assay type: cell-based; set-up: Excess HSA (sum excess HSA score, combination with venetoclax): scale not given here; conditions: for Excess HSA (sum excess HSA score, combination with venetoclax): 10 × 10 dataset, Cell Titre Glo at 48 hours, optimal of 4 dose combinations, negative = synergy; for Concentration of a compound of the disclosure, or gilteritinib, needed to decrease the 62.5 nM Ven response to <10% in MOLM14(D835Y) cells: combination with 62.5 nM Venetoclax, Cell Titer Glo, 48 hours, response <10%
Method: as §3, §4

MOLM14 D835Y cells = assay: MOLM14 D835Y cell viability assay (Cell Titer Glo); assay type: cell-based; conditions: cell viability, Cell Titer Glo, 48 hours, read-out: MOLM14 D835Y IC50
Method in brief: as §2

FLT3 = target: T3, FLT3 (Homo sapiens, UniProt P36888); assay: RBC HotSpot Kinase Assay, FLT3; assay type: biochemical; set-up: purchased Reaction Biology (RBC HotSpot); conditions: isolated kinase enzyme, 33P-ATP, P81 filter-binding
T3 sequence (P36888 27-993): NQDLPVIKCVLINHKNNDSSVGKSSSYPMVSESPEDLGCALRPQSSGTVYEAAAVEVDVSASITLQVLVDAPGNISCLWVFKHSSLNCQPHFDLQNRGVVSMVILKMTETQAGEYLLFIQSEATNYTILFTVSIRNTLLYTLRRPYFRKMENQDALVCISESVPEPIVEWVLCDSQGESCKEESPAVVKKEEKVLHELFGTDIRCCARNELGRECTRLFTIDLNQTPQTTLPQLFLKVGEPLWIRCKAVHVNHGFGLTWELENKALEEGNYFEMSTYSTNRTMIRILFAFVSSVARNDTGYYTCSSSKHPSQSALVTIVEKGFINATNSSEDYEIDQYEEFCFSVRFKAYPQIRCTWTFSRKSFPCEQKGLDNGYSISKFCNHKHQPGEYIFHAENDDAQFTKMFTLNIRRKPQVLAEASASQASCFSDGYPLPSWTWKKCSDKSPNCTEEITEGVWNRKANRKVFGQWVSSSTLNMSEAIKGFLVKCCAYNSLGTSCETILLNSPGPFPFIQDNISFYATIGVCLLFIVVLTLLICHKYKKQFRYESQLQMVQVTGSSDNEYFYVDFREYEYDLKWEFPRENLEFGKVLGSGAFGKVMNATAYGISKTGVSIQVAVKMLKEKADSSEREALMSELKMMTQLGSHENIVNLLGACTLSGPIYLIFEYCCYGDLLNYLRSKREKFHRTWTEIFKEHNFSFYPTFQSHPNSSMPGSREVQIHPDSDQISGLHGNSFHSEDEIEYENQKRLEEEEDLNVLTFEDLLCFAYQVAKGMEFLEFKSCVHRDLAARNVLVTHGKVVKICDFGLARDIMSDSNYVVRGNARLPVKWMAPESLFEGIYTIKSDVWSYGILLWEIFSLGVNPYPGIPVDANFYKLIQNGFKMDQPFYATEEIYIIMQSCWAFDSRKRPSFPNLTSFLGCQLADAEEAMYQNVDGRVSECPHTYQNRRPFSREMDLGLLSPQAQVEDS
Method in brief: as §1

[3] = THP-1-Blue NF-κB cells stimulated with Pam3CSK4 (1 ng/mL), read-out: NF-κB Pam3SCK4 IC50
[4] = THP-1-Blue NF-κB cells stimulated with hIL1B (1 ng/mL), read-out: NF-κB IL1B IC50

Compound | IC50 (IRAK1) [nM] | IC50 [1, 3] [nM] | IC50 [1, 4] [nM] | IC50 (IRAK4) [nM] | IC50 (MOLM14 F691L cells) [nM] | Excess HSA (sum excess HSA score, combination with venetoclax) (THP1 cells (FLT3 WT)) | Excess HSA (sum excess HSA score, combination with venetoclax) [2] | IC50 (MOLM14 D835Y cells; Homo sapiens, MOLM-14, 48 h) [nM] | IC50 (FLT3) [nM] | Concentration needed to decrease the 312.5 nM Venetoclax response to <20% (THP1 cells (FLT3 WT)) [µM] | Concentration of a compound of the disclosure, or gilteritinib, needed to decrease the 62.5 nM Ven response to <10% in MOLM14(D835Y) cells [2] [nM] | IC50 (MOLM14 D835Y cells) [nM]
COc1cc2ncc(-c3nc(N[C@H]4CNCC[C@@H]4F)ncc3F)n2nc1C1CC(C)(C)C1 [Compound 57a, 4-(6-(3,3-dimethylcyclobutyl)-7-methoxyimidazo[1,2-b]pyridazin-3-yl)-5-fluoro-N-((3S,4S)-4-fluoropiperidin-3-yl)pyrimidin-2-amine] | 2 | 157 | 167 | 1 | 90 | −1308.2250 | −1762 | 11 | – | – | – | –
COc1cnc(N[C@H]2CNC[C@@H]2F)nc1-c1cnc2cc(OC)c(C3CC3)nn12 [Compound 104a, 4-(6-cyclopropyl-7-methoxyimidazo[1,2-b]pyridazin-3-yl)-N-((3S,4S)-4-fluoropyrrolidin-3-yl)-5-methoxypyrimidin-2-amine] | 4860 | – | – | 25 | 6340 | – | −2179 | 711 | 14 | – | – | –
CC(O)(c1ccc2ncc(-c3nc(N[C@H]4CNCC[C@@H]4F)ncc3F)n2c1)C(F)(F)F (single isomer, unassigned) [Compound 35a] | 0.9 | – | – | 0.7 | – | −937.7 | −1543 | – | < 0.5 | 1.25 | 25 | 26
COc1cc2ncc(-c3nc(N[C@H]4CNCC[C@@H]4F)ncc3F)n2nc1C1CCC1 [Compound 54a, 4-(6-cyclobutyl-7-methoxyimidazo[1,2-b]pyridazin-3-yl)-5-fluoro-N-((3S,4S)-4-fluoropiperidin-3-yl)pyrimidin-2-amine] | < 0.5 | – | – | < 0.5 | 7 | −807.2 | −1490 | 1 | < 0.5 | 5 | 1.6 | –
COc1cc2ncc(-c3ccnc(N[C@H]4CNCC[C@@H]4F)n3)n2nc1C1CC(C)(C)C1 [Compound 82a, 4-(6-(3,3-dimethylcyclobutyl)-7-methoxyimidazo[1,2-b]pyridazin-3-yl)-N-((3S,4S)-4-fluoropiperidin-3-yl)pyrimidin-2-amine] | 174 | – | – | 45 | 1130 | −1292.2960 | −1679 | 127 | < 0.5 | 5 | 39 | –
CCc1nc(C(N)=O)c(Nc2ccc(N3CCC(N4CCN(C)CC4)CC3)c(OC)c2)nc1NC1CCOCC1 [Gilteritinib, reference compound] | – | – | – | – | – | −1626 | −1556 | – | – | 10 | 125 | –
CC(O)(c1ccc2ncc(-c3nc(N[C@H]4CNCC[C@@H]4F)ncc3F)n2c1)C(F)(F)F (single isomer, unassigned) [Compound 34a] | 4 | – | – | 2 | – | −683.5 | −1437.9420 | 51 | 0.6 | 1.25 | 100 | –
COc1cc2ncc(-c3ccnc(N[C@H]4CNCC[C@@H]4F)n3)n2nc1C1CC2(CCC2)C1 [Compound 74a, N-((3S,4S)-4-fluoropiperidin-3-yl)-4-(7-methoxy-6-(spiro[3.3]heptan-2-yl)imidazo[1,2-b]pyridazin-3-yl)pyrimidin-2-amine] | 91 | – | – | 26 | 1000 | −456.1 | −1335 | 80 | < 0.5 | 5 | 312 | –
COc1cc2ncc(-c3nc(N[C@H]4CNCC[C@@H]4F)ncc3F)n2nc1[C@H]1C[C@@H](O)C1 [Compound 126a, Cis-3-(3-(5-fluoro-2-(((3S,4S)-4-fluoropiperidin-3-yl)amino)pyrimidin-4-yl)-7-methoxyimidazo[1,2-b]pyridazin-6-yl)cyclobutan-1-ol] | 37 | 192 | 183 | < 0.5 | 80 | – | – | 4 | < 0.5 | – | – | –
